Source: publication PMC4669789, “Selective inhibition of HDAC8 decreases neuroblastoma growth in vitro and in vivo and enhances retinoic acid-mediated differentiation” (Cell Death & Disease, 2015)
“And” between values parts separate entries of the source, which are not always exact repeats. Equal entries are not always repeated.

Legend:
[1] = biological target: T1, HDAC10 (Homo sapiens, UniProt Q969S8); assay: In vitro HDAC activity assay (Reaction Biology); format: biochemical; settings: cell-free; read-out: IC50 values of HDAC8 inhibitors, HDAC10
T1 sequence (Q969S8 1-323 limits assumed): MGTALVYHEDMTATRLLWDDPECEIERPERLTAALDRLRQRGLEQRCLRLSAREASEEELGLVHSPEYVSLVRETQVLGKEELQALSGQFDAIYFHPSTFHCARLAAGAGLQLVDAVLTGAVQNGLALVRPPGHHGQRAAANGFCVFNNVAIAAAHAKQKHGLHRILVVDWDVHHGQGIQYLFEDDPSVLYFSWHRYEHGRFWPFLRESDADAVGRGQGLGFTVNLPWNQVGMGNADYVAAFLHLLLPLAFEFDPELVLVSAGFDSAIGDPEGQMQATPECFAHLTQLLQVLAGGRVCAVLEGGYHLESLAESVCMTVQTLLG
Description: (§1) Peptide substrate was conjugated with AMC. […] The HDAC reaction was performed at 30 °C for 2 h before adding the developer reagent. The free AMC was detected with excitation of 360 nm and emission 460 nm at kinetic mode for 90 min. IC50 values were calculated with GraphPad Prism version 3.0a (GraphPad Software Inc., San Diego, CA, USA).

[2] = biological target: T2, HDAC11 (Homo sapiens, UniProt Q96DB2); assay: In vitro HDAC activity assay (Reaction Biology); format: biochemical; settings: cell-free; read-out: IC50 values of HDAC8 inhibitors, HDAC11
T2 sequence (Q96DB2 14-326 limits assumed): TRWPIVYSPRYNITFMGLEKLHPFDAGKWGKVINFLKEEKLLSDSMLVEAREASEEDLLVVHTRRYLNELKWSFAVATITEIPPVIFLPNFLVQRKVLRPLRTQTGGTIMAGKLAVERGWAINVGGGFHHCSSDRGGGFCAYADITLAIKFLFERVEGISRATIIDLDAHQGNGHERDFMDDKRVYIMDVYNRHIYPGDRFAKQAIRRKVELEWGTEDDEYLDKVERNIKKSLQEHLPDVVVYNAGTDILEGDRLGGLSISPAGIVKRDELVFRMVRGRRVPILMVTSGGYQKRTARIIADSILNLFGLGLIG
Description: as §1

[3] = biological target: HDAC3 (Homo sapiens, UniProt O15379); assay: In vitro HDAC activity assay (Reaction Biology); format: biochemical; settings: cell-free; read-out: IC50 values of HDAC8 inhibitors, HDAC3
Description: as §1

[4] = biological target: HDAC4 (Homo sapiens, UniProt P56524); assay: In vitro HDAC activity assay (Reaction Biology); format: biochemical; settings: cell-free; read-out: IC50 values of HDAC8 inhibitors, HDAC4
Description: as §1

[5] = biological target: HDAC5 (Homo sapiens, UniProt Q9UQL6); assay: In vitro HDAC activity assay (Reaction Biology); format: biochemical; settings: cell-free; read-out: IC50 values of HDAC8 inhibitors, HDAC5
Description: as §1

[6] = biological target: T3, HDAC7 (Homo sapiens, UniProt Q8WUI4); assay: In vitro HDAC activity assay (Reaction Biology); format: biochemical; settings: cell-free; read-out: IC50 values of HDAC8 inhibitors, HDAC7
T3 sequence (Q8WUI4 512-865 limits assumed): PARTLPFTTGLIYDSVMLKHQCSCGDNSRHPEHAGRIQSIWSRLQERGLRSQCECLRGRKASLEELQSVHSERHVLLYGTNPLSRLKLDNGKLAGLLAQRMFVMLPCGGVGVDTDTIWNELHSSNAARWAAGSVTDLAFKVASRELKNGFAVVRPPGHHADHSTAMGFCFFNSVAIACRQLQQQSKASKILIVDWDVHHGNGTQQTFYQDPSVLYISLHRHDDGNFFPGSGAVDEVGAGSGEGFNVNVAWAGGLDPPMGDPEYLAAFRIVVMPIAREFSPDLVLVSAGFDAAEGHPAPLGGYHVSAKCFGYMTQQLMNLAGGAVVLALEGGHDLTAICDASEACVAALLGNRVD
Description: as §1

[7] = biological target: T4, HDAC8 (Homo sapiens, UniProt Q9BY41); assay: In vitro HDAC activity assay (Reaction Biology); format: biochemical; settings: cell-free; read-out: IC50 values of HDAC8 inhibitors, HDAC8
T4 sequence (Q9BY41 14-324 limits assumed): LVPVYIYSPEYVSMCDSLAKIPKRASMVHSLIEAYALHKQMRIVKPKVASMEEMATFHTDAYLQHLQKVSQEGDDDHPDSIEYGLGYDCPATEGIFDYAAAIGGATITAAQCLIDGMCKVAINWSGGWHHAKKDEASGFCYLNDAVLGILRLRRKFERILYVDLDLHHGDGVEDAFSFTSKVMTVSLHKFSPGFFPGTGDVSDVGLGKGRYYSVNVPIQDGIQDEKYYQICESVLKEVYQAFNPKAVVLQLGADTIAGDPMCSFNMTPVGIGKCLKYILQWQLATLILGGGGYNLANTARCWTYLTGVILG
Description: as §1

[8] = biological target: HDAC9 (Homo sapiens, UniProt Q9UKV0); assay: In vitro HDAC activity assay (Reaction Biology); format: biochemical; settings: cell-free; read-out: IC50 values of HDAC8 inhibitors, HDAC9
Description: as §1

[9] = Determination of inhibitor plasma half-life; format: in vivo, mouse
[10] = test system: PBMCs; assay: Whole lysine acetylation in PBMC after intraperitoneal administration (FACS); format: in vivo, mouse; settings: 50 mg/kg/d intraperitoneal; solvent 32.1
Description: Both inhibitors were intraperitoneally injected into NMRI Foxn1 nude mice in increasing doses from 40 up to 400 mg/kg per day for 2 × 5 days. Each dose was tested in a cohort of three animals. Resulting MTDs were validated within cohorts of eight animals for each inhibitor. […] As a reference, the blood of 12 untreated NMRI Foxn1 nude mice was analyzed. […] Vorinostat was used as a control for unselective HDAC inhibition.
Whole blood (100 μl) was collected from the femoral vein of untreated athymic NMRI nude mice (HsdCpb:NMRI-Foxn1^nu; Harlan Laboratories Inc.), and respective animals were killed 2 h after intraperitoneal injection of substances. For the analysis of whole acetylation levels, mice were killed at half-life time of the inhibitors. Whole blood with heparin was added to RBC lysis buffer (diluted 1 : 10) (BioLegend, San Diego, CA, USA) at a ratio of 1 : 4. Next, red blood cell lysis was performed according to the manufacturer's instructions. PBMCs were lysed in SDS lysis buffer for western blot or processed for FACS analysis.
Cells were permeabilized by incubation with 50 μg/ml digitonin for 6 min at RT. Cells were incubated with primary antibody overnight at 4 °C. After staining with Cy3-conjugated anti-rabbit antibody, cells were analyzed by FACS using CellQuest software (BD Biosciences, San Jose, CA, USA).

Sequence of HDAC3 (O15379 3-316 limits assumed): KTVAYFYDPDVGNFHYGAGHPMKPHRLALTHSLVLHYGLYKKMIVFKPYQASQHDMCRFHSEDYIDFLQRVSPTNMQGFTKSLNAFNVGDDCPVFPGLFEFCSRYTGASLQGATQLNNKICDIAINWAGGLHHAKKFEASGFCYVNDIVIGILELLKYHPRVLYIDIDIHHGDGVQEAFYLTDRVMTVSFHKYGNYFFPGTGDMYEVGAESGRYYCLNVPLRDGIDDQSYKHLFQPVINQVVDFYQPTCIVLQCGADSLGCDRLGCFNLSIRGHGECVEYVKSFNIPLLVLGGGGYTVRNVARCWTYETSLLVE
Sequence of HDAC3 (Q9Y618 395-489 partner limits assumed): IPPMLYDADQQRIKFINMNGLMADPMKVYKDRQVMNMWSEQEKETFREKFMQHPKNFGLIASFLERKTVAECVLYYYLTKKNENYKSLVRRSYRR
Sequence of HDAC5 (Q9UQL6 684-1028 limits assumed): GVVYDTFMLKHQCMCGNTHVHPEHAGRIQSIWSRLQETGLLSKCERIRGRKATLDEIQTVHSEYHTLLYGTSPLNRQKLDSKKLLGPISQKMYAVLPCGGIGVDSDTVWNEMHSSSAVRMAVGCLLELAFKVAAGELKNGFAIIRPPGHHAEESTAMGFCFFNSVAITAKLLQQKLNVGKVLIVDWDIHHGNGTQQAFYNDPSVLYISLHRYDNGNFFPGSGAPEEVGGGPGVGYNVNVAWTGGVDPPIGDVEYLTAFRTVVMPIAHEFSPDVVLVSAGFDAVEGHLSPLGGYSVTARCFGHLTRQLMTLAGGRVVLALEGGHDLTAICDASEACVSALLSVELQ
Sequence of HDAC9 (Q9UKV0 631-978 limits assumed): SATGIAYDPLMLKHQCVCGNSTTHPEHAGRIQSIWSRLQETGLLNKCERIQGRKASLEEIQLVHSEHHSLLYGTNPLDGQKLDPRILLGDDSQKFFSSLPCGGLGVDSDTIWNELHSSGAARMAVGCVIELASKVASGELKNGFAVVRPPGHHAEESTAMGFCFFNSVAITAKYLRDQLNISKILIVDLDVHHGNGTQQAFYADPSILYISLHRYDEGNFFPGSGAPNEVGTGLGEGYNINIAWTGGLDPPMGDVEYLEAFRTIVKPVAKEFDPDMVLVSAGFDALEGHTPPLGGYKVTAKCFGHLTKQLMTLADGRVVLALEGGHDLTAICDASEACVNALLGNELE
Sequence of HDAC4 (P56524 655-1084 limits assumed): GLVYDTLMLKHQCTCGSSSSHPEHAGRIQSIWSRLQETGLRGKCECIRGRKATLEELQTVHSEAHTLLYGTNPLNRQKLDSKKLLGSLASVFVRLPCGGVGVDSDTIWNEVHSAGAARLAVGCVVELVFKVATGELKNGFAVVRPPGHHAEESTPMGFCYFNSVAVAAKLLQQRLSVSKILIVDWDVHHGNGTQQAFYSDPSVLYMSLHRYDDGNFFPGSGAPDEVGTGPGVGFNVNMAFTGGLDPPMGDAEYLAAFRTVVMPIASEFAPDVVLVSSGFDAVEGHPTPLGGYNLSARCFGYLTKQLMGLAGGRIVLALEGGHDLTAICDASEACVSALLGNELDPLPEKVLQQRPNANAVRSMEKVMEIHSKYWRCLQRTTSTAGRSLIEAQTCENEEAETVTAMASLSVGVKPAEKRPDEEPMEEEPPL

With `O=C(NO)c1cccc2ccccc12` [Cpd2, 1-naphthohydroxamic acid] the IC50 [1] was > 75.6 µM, the IC50 [2] was > 75.6 µM and the IC50 [3] was > 75.6 µM. The IC50 [4] was > 75.6 µM, the IC50 [5] was > 75.6 µM and the IC50 [6] was > 75.6 µM. The IC50 [7] was 34 µM and 33.7 µM, the IC50 [8] was > 75.6 µM and the half-life ([9]; NMRI Foxn1 nude, mouse, plasma, ip, 100 mg/kg, intraperitoneal 100 mg/kg, NMRI Foxn1 nude mice, read-out: half-life in blood plasma) was ~15 min. The plasma peak concentration ([9]; intraperitoneal, single dose of 100 mg/kg, mice) was ~ 30 μM and the “whole acetyl-lysine mean fluorescent values (Blank-corrected), PBMCs” value [10] was 39.2.
